How the values were obtained:
Type in all cases: cell-based
KRas^G12C [1] = molecular target: T1, KRas^G12C (Homo sapiens, UniProt P01116, G12C); assay: Western blot of KRas G12C degradation and gel shift (FIGS. 2A and 2B)
T1 construct: endogenous in cells

KRas [2] = molecular target: T2, KRas (Homo sapiens, UniProt P01116, G12C); assay: KRas degradation in SW1573 cells by Western blot, normalized to GAPDH (data of Table 14); settings: SW1573
Method in brief: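 SW1573 cells, homozygous for the KRas G12C mutation and maintained in DMEM with 10% FBS and 1% penicillin-streptomycin, were seeded in 12-well plates, allowed to attach overnight at 37° C. under 5% CO2, then serum-starved for 24 hours before compound exposure. KRas levels were measured by Western blot, normalized to GAPDH, and compared with DMSO controls to give percent degradation, DC50 and Dmax.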

KRas^G12C [3] = molecular target: T1, KRas^G12C; assay: Western blot mobility shift of KRas after treating cells with bifunctional compound (FIGS. 2A and 2B)
Description: FIGS. 2A and 2B show the result of treating cells with either a bifunctional compound alone or a bifunctional compound and an E3 ubiquitin ligase inhibitor, and then detecting the KRas protein on the gel. The mobility shift of KRas detection on the gel illustrates that the bifunctional compounds covalently modify KRas. The upper band is KRas and the bifunctional compound, while the lower band is KRas alone.

KRas [4] = molecular target: T2, KRas; assay: KRas degradation in NCI-H2030 cells by Western blot, normalized to GAPDH (data of Table 14); design: host or cells: NCI-H2030
Method in brief: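 Degradation of endogenous homozygous G12C KRas is measured by immunoblot after serum starvation and compound exposure at three final concentrations (0.3, 1 and 3 μM). VHL-recruiting compounds are incubated 24 h and all others 72 h. Percent loss is calculated from GAPDH-normalized KRas relative to vehicle.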

In the case of `C=CC(=O)N1CCN(c2nc(O[C@H](C)CN3CCC(OCCOCCOCC(=O)N[C@H](C(=O)N4C[C@H](O)C[C@H]4C(=O)N[C@@H](C)c4ccc(-c5scnc5C)cc4)C(C)(C)C)CC3)nc3c(F)c(-c4cc(O)cc5ccccc45)c(Cl)cc23)CC1` [compound 399, (2S,4R)-1-((2S)-2-(2-(2-(2-((1-((2R)-2-((4-(4-acryloylpiperazin-1-yl)-6-chloro-8-fluoro-7-(3-hydroxynaphthalen-1-yl)quinazolin-2-yl)oxy)propyl)piperidin-4-yl)oxy)ethoxy)ethoxy)acetamido)-3,3-dimethylbutanoyl)-4-hydroxy-N-((S)-1-(4-(4-methylthiazol-5-yl)phenyl)ethyl)pyrrolidine-2-carboxamide], the “covalent modification of KRas^G12C, as seen by the gel shift” value (KRas^G12C [1]; Western blot gel shift, FIGS. 2A and 2B) is reported as “covalently modify KRas^G12C”, the “degrader potency shown by Western blot” value (KRas^G12C [1]; Western blot, FIG. 2A / FIG. 2B) is reported as “potent degrader” and the DC50 (KRas [2]) is reported as < 100 nM. The Dmax (KRas [2]) was 35 to 70%, the “Percent Degradation at Indicated Concentration (μM)” value (“Percent Degradation” below) (KRas [2]; 0.03 μM) was “C (Percent Degradation: C ≤ 35)” and the “Percent Degradation” value (KRas [2]; 0.1 μM) was “B (35 < B < 70)”. The “Percent Degradation” value (KRas [2]; 0.3 μM) was “B (35 < B < 70)”, the “Percent Degradation” value (KRas [2]; 1 μM) was “B (35 < B < 70)” and the “Percent Degradation” value (KRas [2]; 3 μM) was “B (35 < B < 70)”. For the same compound, the “Percent Degradation” value (KRas [2]; 10 μM) was “C (Percent Degradation: C ≤ 35)”, the “KRas degrader activity (representative Western blot)” value (KRas^G12C [3]; FIG. 2A / FIG. 2B) was “potent degrader” and the “covalent modification of KRas seen by gel shift” value (KRas^G12C [3]; upper band is KRas and the bifunctional compound, lower band is KRas alone) was “covalently modify KRas^G12C”. The DC50 (KRas [4]; H2030) was ≥ 1000 nM, the “Percent Degradation” value (KRas [4]; H2030, 0.03 μM) was “C (Percent Degradation: C ≤ 35)” and the “Percent Degradation” value (KRas [4]; H2030, 0.1 μM) was “C (Percent Degradation: C ≤ 35)”. The “Percent Degradation” value (KRas [4]; H2030, 0.3 μM) was “C (Percent Degradation: C ≤ 35)”, the “Percent Degradation” value (KRas [4]; H2030, 1 μM) was “C (Percent Degradation: C ≤ 35)” and the “Percent Degradation” value (KRas [4]; H2030, 3 μM) was “B (35 < B < 70)”. For the same compound, the “Percent Degradation” value (KRas [4]; H2030, 10 μM) was “C (Percent Degradation: C ≤ 35)” and the Dmax (KRas [4]; NCI-H2030) was 35 to 70%.
